Drawing on ChEMBL document CHEMBL3886249, “Serine/threonine kinase inhibitors” (2015), this text covers IC50 for 2 compounds.

The target of the experiment is Mitogen-activated protein kinase 1 (Homo sapiens, UniProt P28482). As to the kind of experiment: Enzymatic Assay: Compounds were tested in an enzymatic assay using human ERK-2 (Mitogen Activated Kinase 1), recombinantly expressed as an n-terminal 6-His fusion protein in E. coli and corresponding to aa 8-360. […] Test compounds were diluted in DMSO in 3-fold serial dilutions at 100x final concentrations.
Sequence of Mitogen-activated protein kinase 1 (P28482 whole entry, the tested form may be a part): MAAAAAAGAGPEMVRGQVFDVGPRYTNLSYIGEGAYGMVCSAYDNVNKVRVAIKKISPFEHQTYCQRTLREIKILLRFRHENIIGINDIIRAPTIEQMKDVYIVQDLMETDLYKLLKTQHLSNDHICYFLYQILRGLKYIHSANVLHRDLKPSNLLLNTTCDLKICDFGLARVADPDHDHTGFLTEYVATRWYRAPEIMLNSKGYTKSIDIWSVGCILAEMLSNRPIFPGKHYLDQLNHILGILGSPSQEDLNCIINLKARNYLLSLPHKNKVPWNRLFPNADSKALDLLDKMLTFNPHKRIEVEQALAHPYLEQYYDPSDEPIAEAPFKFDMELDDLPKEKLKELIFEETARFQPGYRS

The term IC50 denotes the midpoint of a concentration-inhibition curve. In the case of `CC1CC(Nc2ncc3c(n2)CN(C(=O)N[C@H](CO)c2ccc(Cl)c(F)c2)CC3)CCO1` (some centres not stated), the IC50 was 2.39 nM.
For `CC(C)Nc1ncc2c(n1)CN(C(=O)N[C@@H](c1ccc(C(F)(F)F)c(F)c1)c1cccc(=O)[nH]1)CC2` the value was 144 nM.
